{"source": "paper PMC10041561", "about": "(JID Innovations, 2022)", "key": {"[1]": {"biological_target": "T1, PTGS2 (COX-2) (Homo sapiens, UniProt P35354)", "T1 sequence (P35354 18-604)": "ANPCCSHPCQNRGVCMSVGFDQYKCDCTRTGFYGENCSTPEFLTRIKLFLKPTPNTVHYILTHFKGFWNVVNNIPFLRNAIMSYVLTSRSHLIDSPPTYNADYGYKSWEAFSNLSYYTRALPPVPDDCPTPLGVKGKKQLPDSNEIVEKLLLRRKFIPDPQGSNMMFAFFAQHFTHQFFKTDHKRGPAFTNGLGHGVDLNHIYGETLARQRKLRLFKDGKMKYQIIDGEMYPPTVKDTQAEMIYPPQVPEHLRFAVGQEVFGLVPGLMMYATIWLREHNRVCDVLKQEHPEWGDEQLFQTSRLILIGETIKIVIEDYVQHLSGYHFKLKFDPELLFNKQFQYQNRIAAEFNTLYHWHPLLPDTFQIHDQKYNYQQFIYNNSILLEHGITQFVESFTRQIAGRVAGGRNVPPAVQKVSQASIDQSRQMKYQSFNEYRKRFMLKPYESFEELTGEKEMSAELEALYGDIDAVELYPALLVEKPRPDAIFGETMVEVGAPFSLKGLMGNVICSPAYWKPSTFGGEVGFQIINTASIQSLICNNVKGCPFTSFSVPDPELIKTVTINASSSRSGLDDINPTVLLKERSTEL", "experiment": "PTGS2", "format": "biochemical, bovine/human", "details": "COX-2 Inhibition Mean IC50, mean of replicates 1-2 (Fig 16g)"}, "[2]": {"test_system": "reconstituted human epidermis (RHE) tissues", "experiment": "Cortisol in RHE-conditioned medium", "format": "cell-based", "details": "48 hours, with or without cell viability standardization"}, "[3]": {"test_system": "reconstituted human epidermis (RHE) tissues", "experiment": "IL-8 levels in RHE-conditioned medium", "format": "cell-based", "details": "48 hours"}, "[4]": {"test_system": "TNF-stimulated neonatal human epidermal KCs", "experiment": "Microarray gene expression in TNF-stimulated keratinocytes", "format": "cell-based"}, "[5]": {"test_system": "CB1 receptor", "details": "ref Vučković et al., 2018; cited from earlier work"}, "[6]": {"test_system": "CB2 receptor", "details": "ref Vučković et al., 2018; cited from earlier work"}, "[7]": {"details": "ref Nelson et al., 2020; cited from earlier work"}, "[8]": {"details": "ref Jaidee et al., 2021; cited from earlier work"}}}
{"molecule": "C=C[C@@](C)(/C=C/c1ccc(O)cc1)CCC=C(C)C", "note": "[BAK, bakuchiol]", "values": [{"measurement": "IC50", "setting": "[1]", "result": 12.9, "unit": "µM"}, {"measurement": "cortisol levels in RHE-conditioned medium", "setting": "[2]", "result": "significantly decreased cortisol levels"}, {"measurement": "IL-8 levels in RHE-conditioned medium", "setting": "[3]", "result": "decreased IL-8"}]}
{"molecule": "C=C(C)[C@@H]1CCC(C)=C[C@H]1c1c(O)cc(CCCCC)cc1O", "note": "[CBD, cannabidiol]", "values": [{"measurement": "average increase in the expression of unhealthy skin signature genes", "setting": "[4]; TNF-stimulated KCs", "result": 5, "unit": "%"}, {"measurement": "number of genes decreased", "setting": "[4]; vs TNF, FDR < 0.10 with FC < 0.80", "result": 114, "unit": "genes"}, {"measurement": "number of genes increased", "setting": "[4]; vs TNF, FDR < 0.10 with FC > 1.25", "result": 205, "unit": "genes"}, {"measurement": "number of genes with altered expression", "setting": "[4]; vs TNF, FDR < 0.10 with FC > 1.25 or FC < 0.80", "result": 319, "unit": "genes"}, {"measurement": "cortisol levels in RHE-conditioned medium", "setting": "[2]", "result": "not observed"}, {"measurement": "affinity for the CB1 receptor", "setting": "[5]", "result": "little affinity"}, {"measurement": "affinity for the CB2 receptor", "setting": "[6]", "result": "little affinity"}, {"measurement": "octanol-water partition coefficient", "setting": "[7]", "result": "high"}, {"measurement": "stability at room temperature", "setting": "[8]", "result": "unstable at room temperature"}]}
